In patent publication US20260115180A1, “TREATMENT OF HYPOTHALAMIC OBESITY” (Saniona A/S, priority 2020, published 2026):

Legend:
[1] = in vivo; cited from earlier work
[2] = Open-label extension of the Phase 2 study TM005 (additional 24 weeks, 48 weeks in total); type: in vivo, human
Experimental: All subjects: co-administration of 0.5 mg tesofensine/50 mg metoprolol ER daily for 24 weeks. One tablet for each product.
TM005 was a 24-week phase 2, double-blind, randomized, placebo-controlled, single-centre, safety and efficacy study followed by a 24-week open-label extension treatment period designed to evaluate overall safety and tolerability of Tesomet (co-administration of 0.5 mg tesofensine and 50 mg metoprolol) in patients with hypothalamic obesity (HO).
The primary endpoint of the study was overall safety and tolerability measured by all safety data collected during the study including recorded adverse events, laboratory data, blood pressure, and heart rate. The secondary efficacy endpoints included bodyweight, waist circumference, glycemic control and other measures. In the double-blind (DB) period of the study, patients received either Tesomet or matching placebo (2:1 randomization) for 24 weeks.
A total of 21 patients (13 Tesomet, 8 placebo) were randomized into the double blind (DB) period. All patients who completed the DB period of the study were provided the opportunity to receive Tesomet in an open-label extension (OLE) period of the study for an additional 24 weeks. All 18 patients who completed the DB period chose to participate in the OLE period and all of these patients completed the OLE period. […]

[3] = rat model of diet-induced obesity; cited from earlier work
[4] = Phase 2 double-blind, randomized, placebo-controlled trial of Tesomet in hypothalamic obesity, Part 1 (24 weeks); type: in vivo, human; settings: after 24 weeks of treatment (FIG. 3a)
From the text: The overall safety and tolerability of co-administration of tesofensine and metoprolol (Tesomet) in subjects with hypothalamic injury-induced obesity (HIO) was studied in a phase 2, double-blind, randomized, placebo-controlled, single-center safety and efficacy study followed by with an open-label extension, in total 48 weeks: • Part 1:24 Weeks double blinded treatment followed by • Part 2:24 weeks open lable extension.
The studied population were subjects suffering from obesity developed in relation to damage to the hypothalamus (HO), whether it is from an injuring trauma, bleeding, infaction, tumor, surgery or irradiation. […]
This randomized, double-blind, placebo-controlled Phase 2 trial evaluated Tesomet (tesofensine 0.5 mg+metoprolol 50 mg) administered daily in patients with HO, conducted at Rigshospitalet in Copenhagen, Denmark.
The primary endpoint of the study was overall safety and tolerability measured by all safety data collected during the study including recorded adverse events, laboratory data, blood pressure, and heart rate. […]
Continuous efficacy secondary endpoints were compared between treatment arms by means using Analysis of Co-variance (ANCOVA) including treatment as fixed factor and baseline value as covariate. Estimates and 95% confidence intervals of treatment differences were calculated

[5] = cited from earlier work

Compound: COc1ccccc1OCCNCC(O)COc1cccc2[nH]c3ccccc3c12 (racemic) [carvedilol, (±)-[3-(9H-carbazol-4-yloxy)-2-hydroxypropyl][2-(2-methoxyphenoxy)ethyl]amine]
- Half-life of beta blockers [1]: 7 to 10 h

Compound: COCCc1ccc(OCC(O)CNC(C)C)cc1 (centres unmarked) [metoprolol, 1-(Isopropylamino)-3-[4-(2-methoxyethyl)-phenoxy]-propan-2-ol]
- Half-life of beta blockers [1]: 3 to 4 h

Compound: CCOC[C@@H]1[C@@H](c2ccc(Cl)c(Cl)c2)C[C@@H]2CC[C@H]1N2C [Tesofensine, (1R,2R,3S,5S)-3-(3,4-dichlorophenyl)-2-(ethoxymethyl)-8-methyl-8-azabicyclo[3.2.1]octane]
- Share of patients with at least 10% weight loss ([2]; FIG. 3b): 33-41%
- Body weight after 48 weeks of Tesomet ([2]; baseline to Week 48, 24 weeks double-blind + 24 weeks open-label (FIG. 5)): maintained
- Body weight in DIO rats [3]: robust and sustained weight loss
- Share of patients with at least 5% weight loss [4]: approximately ⅔
- Nocturnal energy expenditure ([5]; human subjects): increase nocturnal energy expenditure
- Weight loss in obese patients, corrected for placebo and diet effects ([5]; long-term treatment): about 10%
